Assay results: publication PMC7026418, “The kinase polypharmacology landscape of clinical PARP inhibitors” (Scientific Reports, 2020)
Where two headings read alike, the source gives them in different places.

Experiments:
Test in all cases: biochemical
Set-up in all cases: DiscoveRx KINOMEscan active site-directed competition binding; percent of control kinase bound to immobilised ligand
EGFR(L861Q) = EGFR(L861Q) (Homo sapiens, UniProt P00533, L861Q)
DYRK2 = target: T1, DYRK2 (Homo sapiens, UniProt Q92630)
T1 sequence (Q92630 1-601): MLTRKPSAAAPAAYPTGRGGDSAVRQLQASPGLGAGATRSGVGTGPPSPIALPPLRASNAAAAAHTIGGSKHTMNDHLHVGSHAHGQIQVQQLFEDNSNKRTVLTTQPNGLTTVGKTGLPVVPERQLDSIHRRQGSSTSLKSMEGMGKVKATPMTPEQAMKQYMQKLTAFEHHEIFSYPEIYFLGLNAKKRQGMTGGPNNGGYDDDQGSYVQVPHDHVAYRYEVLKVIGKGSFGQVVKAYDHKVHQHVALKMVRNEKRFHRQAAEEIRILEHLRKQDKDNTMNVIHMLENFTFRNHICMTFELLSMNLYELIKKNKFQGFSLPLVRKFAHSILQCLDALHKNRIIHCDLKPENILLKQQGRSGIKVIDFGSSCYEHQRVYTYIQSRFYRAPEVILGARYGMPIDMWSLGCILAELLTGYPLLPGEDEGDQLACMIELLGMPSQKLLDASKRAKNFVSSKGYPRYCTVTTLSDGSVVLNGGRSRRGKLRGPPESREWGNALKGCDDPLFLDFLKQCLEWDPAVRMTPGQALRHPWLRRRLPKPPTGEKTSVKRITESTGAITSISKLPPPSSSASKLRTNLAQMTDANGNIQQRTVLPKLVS

MAST1 = MAST1 (Homo sapiens, UniProt Q9Y2H9)
MAST1, sequence (Q9Y2H9 whole entry): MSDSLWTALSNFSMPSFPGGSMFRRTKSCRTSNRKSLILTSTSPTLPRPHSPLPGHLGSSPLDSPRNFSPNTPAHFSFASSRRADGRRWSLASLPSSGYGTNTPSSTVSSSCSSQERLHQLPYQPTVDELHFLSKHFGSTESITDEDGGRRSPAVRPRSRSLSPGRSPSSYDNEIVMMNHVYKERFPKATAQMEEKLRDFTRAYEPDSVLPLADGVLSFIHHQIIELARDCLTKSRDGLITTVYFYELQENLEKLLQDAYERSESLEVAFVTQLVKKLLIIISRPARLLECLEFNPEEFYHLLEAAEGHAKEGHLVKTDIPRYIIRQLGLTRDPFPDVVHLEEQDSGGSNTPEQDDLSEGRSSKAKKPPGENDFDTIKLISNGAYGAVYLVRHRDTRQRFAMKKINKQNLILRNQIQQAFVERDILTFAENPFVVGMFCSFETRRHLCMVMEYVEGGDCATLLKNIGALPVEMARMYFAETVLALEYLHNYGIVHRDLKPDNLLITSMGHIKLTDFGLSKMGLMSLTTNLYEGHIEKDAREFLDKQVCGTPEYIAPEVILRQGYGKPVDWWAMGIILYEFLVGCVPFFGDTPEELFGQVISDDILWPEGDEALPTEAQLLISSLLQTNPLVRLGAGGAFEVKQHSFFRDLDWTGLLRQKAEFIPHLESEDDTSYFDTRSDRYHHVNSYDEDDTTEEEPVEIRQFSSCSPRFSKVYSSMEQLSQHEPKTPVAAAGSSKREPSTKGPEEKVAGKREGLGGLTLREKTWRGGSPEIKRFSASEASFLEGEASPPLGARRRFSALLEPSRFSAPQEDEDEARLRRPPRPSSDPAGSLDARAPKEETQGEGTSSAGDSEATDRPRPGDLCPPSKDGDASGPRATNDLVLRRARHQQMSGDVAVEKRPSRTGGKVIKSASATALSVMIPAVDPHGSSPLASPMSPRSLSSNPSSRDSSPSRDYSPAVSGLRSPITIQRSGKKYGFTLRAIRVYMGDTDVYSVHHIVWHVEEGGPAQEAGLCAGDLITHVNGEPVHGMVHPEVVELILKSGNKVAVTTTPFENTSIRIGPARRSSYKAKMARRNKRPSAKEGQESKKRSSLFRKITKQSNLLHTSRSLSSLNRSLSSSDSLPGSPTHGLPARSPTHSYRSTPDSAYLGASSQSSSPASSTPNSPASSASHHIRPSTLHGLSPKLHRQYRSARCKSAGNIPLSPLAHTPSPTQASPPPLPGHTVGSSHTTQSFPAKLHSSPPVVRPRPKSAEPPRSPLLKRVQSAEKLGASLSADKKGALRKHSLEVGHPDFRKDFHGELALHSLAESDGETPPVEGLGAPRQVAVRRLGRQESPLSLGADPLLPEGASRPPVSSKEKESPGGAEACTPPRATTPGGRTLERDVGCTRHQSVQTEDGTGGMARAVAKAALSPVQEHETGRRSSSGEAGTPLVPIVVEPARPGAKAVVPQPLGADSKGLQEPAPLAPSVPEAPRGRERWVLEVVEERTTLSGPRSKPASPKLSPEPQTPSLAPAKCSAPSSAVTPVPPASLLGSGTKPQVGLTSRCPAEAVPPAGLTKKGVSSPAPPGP

TLK1 = target: T2, TLK1 (Homo sapiens, UniProt Q9UKI8)
T2 sequence (Q9UKI8 1-766): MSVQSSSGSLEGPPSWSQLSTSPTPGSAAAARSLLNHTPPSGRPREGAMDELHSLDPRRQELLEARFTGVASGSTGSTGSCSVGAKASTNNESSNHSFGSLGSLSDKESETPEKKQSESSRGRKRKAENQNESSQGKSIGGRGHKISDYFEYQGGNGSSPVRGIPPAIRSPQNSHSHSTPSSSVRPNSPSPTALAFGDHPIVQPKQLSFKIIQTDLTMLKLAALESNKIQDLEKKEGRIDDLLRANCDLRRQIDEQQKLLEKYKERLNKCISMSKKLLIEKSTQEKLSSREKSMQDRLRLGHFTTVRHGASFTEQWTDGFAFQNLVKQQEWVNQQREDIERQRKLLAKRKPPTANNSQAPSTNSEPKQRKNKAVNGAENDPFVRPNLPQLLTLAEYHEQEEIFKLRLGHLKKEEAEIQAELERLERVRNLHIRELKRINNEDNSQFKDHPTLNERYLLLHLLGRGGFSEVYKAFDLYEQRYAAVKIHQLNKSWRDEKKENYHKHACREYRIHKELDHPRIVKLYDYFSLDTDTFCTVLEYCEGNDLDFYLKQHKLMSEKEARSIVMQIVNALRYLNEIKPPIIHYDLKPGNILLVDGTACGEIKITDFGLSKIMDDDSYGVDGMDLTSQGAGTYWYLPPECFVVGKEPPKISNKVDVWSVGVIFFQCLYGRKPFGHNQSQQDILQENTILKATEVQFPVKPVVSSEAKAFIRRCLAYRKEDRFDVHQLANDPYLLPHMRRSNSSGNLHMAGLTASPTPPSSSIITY

ZAP70 = target: T3, ZAP70 (Homo sapiens, UniProt P43403)
T3 sequence (P43403 1-619): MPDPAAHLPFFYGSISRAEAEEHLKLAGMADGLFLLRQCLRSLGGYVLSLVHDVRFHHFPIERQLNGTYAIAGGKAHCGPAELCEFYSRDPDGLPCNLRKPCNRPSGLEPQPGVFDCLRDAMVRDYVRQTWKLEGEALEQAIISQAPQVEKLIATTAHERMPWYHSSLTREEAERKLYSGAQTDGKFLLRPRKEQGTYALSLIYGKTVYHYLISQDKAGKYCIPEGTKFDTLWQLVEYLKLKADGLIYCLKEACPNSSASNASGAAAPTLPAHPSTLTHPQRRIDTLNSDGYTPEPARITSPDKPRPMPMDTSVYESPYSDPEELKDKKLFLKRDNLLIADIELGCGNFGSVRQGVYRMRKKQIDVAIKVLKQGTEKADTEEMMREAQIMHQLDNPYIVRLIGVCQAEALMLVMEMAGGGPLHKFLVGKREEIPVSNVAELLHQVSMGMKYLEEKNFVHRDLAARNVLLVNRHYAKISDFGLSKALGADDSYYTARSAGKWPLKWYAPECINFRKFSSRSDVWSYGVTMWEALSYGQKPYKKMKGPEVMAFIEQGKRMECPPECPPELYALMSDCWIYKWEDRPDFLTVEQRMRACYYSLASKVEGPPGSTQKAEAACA

TRKC = target: T4, TRKC (Homo sapiens, UniProt Q16288)
T4 construct: gene NTRK3
T4 sequence (Q16288 whole entry): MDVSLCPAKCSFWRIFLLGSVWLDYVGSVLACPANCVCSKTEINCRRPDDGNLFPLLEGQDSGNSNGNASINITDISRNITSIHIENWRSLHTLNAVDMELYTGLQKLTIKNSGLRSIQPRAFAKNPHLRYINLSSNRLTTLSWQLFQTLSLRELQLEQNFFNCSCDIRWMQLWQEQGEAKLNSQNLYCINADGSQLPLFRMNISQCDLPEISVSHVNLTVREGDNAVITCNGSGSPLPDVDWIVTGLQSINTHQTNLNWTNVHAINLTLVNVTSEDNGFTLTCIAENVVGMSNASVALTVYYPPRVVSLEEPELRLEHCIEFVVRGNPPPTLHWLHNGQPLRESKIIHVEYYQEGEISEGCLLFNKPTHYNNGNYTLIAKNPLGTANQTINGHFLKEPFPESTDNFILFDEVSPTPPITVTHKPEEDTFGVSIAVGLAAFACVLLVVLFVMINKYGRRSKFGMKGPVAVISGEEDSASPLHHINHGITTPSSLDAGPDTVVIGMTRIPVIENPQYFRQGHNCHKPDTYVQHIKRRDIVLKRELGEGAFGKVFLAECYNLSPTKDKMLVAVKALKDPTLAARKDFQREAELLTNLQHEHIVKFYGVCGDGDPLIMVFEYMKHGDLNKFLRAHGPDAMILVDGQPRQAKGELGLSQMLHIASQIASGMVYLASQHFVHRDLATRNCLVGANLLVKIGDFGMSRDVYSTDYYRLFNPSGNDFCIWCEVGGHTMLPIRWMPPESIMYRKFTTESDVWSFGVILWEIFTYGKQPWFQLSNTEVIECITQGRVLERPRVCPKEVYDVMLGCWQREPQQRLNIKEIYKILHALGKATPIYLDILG

DAPK1 = DAPK1 (Homo sapiens, UniProt P53355)
DAPK1, sequence (P53355 whole entry): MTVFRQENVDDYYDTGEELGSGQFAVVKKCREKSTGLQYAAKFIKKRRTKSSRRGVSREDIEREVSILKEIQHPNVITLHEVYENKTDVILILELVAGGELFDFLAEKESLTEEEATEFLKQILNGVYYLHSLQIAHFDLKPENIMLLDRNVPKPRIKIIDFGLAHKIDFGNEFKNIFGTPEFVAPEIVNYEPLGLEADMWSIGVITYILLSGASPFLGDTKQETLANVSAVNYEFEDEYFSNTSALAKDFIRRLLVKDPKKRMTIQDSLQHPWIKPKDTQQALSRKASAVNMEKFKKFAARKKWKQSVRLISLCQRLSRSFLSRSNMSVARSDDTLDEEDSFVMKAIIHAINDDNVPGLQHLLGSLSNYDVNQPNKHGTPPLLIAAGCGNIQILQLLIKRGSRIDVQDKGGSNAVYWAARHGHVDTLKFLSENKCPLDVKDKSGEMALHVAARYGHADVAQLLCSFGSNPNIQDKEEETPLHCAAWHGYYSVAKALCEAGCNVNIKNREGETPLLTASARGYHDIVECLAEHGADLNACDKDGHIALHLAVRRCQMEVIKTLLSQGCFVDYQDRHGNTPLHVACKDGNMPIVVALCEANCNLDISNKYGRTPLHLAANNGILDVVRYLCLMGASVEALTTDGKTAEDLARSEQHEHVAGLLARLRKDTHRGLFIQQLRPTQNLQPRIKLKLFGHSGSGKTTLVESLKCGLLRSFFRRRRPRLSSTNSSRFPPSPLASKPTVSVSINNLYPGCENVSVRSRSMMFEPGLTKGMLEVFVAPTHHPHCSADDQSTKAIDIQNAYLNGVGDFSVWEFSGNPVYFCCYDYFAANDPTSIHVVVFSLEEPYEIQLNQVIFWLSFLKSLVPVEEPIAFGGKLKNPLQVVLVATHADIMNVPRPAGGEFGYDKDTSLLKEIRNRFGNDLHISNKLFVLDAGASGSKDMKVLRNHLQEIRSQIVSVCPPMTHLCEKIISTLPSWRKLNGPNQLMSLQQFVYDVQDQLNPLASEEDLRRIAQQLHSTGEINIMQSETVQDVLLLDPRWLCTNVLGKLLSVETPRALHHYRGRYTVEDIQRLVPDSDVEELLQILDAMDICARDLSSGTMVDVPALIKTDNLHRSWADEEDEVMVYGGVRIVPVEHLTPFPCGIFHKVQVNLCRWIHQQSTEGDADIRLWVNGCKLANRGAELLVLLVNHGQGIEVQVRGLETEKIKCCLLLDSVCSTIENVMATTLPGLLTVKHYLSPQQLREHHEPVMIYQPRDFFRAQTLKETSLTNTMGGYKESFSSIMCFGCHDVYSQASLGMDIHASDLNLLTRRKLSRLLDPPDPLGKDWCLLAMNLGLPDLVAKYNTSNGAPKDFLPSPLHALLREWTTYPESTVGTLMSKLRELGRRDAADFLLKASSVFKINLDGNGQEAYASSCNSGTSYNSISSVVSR

[1] = read-out: Talazoparib (BMN 673) / %Ctrl @ 10000nM
[2] = read-out: Olaparib / %Ctrl @ 10000nM
[3] = read-out: Niraparib (MK-4827) / %Ctrl @ 10000nM
[4] = read-out: Rucaparib / %Ctrl @ 10000nM, binding competition, % of control

EGFR(L861Q), sequence (P00533 whole entry L861Q): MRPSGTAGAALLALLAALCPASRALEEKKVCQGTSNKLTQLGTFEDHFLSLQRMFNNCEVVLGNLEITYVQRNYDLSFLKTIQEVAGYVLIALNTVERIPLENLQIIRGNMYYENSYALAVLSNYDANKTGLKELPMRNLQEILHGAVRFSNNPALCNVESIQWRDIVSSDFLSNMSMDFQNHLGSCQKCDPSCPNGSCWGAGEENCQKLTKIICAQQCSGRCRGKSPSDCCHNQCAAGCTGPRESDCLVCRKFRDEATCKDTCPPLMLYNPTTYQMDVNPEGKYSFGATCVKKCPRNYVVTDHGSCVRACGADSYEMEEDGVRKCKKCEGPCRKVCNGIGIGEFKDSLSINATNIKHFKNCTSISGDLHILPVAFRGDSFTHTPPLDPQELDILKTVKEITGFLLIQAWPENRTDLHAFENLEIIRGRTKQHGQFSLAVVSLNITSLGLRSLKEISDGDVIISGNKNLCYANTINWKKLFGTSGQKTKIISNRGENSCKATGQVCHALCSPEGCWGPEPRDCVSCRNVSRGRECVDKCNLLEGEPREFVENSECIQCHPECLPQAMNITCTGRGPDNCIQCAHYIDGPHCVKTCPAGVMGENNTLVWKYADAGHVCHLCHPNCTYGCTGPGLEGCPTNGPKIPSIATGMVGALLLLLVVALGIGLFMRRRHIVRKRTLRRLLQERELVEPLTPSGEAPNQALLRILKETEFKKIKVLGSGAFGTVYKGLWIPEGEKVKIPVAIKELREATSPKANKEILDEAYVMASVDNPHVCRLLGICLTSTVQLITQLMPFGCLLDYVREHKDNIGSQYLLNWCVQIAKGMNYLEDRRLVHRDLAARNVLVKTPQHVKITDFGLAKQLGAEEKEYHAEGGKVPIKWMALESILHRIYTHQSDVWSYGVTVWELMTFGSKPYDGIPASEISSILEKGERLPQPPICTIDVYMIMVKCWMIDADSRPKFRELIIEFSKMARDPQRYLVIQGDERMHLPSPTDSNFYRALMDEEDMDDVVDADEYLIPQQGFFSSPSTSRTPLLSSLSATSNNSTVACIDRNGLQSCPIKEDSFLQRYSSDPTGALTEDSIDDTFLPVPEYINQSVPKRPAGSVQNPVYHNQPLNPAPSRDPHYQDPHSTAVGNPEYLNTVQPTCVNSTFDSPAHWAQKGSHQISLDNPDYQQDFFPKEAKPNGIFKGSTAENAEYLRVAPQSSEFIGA

**Q.** Which results are given for Cn1ncnc1[C@H]1c2n[nH]c(=O)c3cc(F)cc(c23)N[C@@H]1c1ccc(F)cc1 [Talazoparib]?
**A.** percent of control binding at 10 µM (EGFR(L861Q); [1]): 82%; percent of control binding at 10 µM (DYRK2; [1]): 86%; percent of control binding at 10 µM (MAST1; [1]): 100%; percent of control binding at 10 µM (TLK1; [1]): 99%; percent of control binding at 10 µM (ZAP70; [1]): 100%; percent of control binding at 10 µM (TRKC; [1]): 100%; percent of control binding at 10 µM (DAPK1; [1]): 89%

**Q.** Which results are given for O=C(c1cc(Cc2n[nH]c(=O)c3ccccc23)ccc1F)N1CCN(C(=O)C2CC2)CC1 [Olaparib]?
**A.** percent of control binding at 10 µM (EGFR(L861Q); [2]): 91%; percent of control binding at 10 µM (DYRK2; [2]): 99%; percent of control binding at 10 µM (MAST1; [2]): 86%; percent of control binding at 10 µM (TLK1; [2]): 94%; percent of control binding at 10 µM (ZAP70; [2]): 93%; percent of control binding at 10 µM (TRKC; [2]): 92%; percent of control binding at 10 µM (DAPK1; [2]): 87%

**Q.** Which results are given for NC(=O)c1cccc2cn(-c3ccc([C@@H]4CCCNC4)cc3)nc12 [Niraparib]?
**A.** percent of control binding at 10 µM (EGFR(L861Q); [3]): 88%; percent of control binding at 10 µM (DYRK2; [3]): 54%; percent of control binding at 10 µM (MAST1; [3]): 91%; percent of control binding at 10 µM (TLK1; [3]): 85%; percent of control binding at 10 µM (ZAP70; [3]): 100%; percent of control binding at 10 µM (TRKC; [3]): 95%; percent of control binding at 10 µM (DAPK1; [3]): 77%

**Q.** How did the percent of control binding at 10 µM (EGFR(L861Q); [4]) turn out when CNCc1ccc(-c2[nH]c3cc(F)cc4c3c2CCNC4=O)cc1 [Rucaparib] was run?
**A.** 70%

**Q.** What about the percent of control binding at 10 µM (DYRK2; [4]) of the same molecule?
**A.** 38%

**Q.** And the percent of control binding at 10 µM (MAST1; [4])?
**A.** 79%

**Q.** And the percent of control binding at 10 µM (TLK1; [4])?
**A.** 94%

**Q.** What about the percent of control binding at 10 µM (ZAP70; [4]) of the same molecule?
**A.** 80%

**Q.** What about the percent of control binding at 10 µM (TRKC; [4]) of the same molecule?
**A.** 88%

**Q.** What about the percent of control binding at 10 µM (DAPK1; [4]) of the same molecule?
**A.** 29%
